Results from PMC7714403 (JCI Insight, 2020).
pIC50, pKd: −log10 of the molar value. Read-outs that look alike come from different tables or passages of the source.

Tests used:
GSK3A = GSK3A (Homo sapiens, UniProt P49840); experiment: KiNativ, OCI cells live cell; type: cell-based; details: 2 h, labeling site Lys2, peptide […]
PCTAIRE1 = PCTAIRE1 (Homo sapiens, UniProt Q00536); experiment: KiNativ, OCI cells live cell; type: cell-based; details: 2 h, labeling site Lys1, peptide […]
MASTL = target: T1, MASTL (Homo sapiens, UniProt Q96GX5); experiment: KiNativ, OCI cells live cell; type: cell-based
T1 sequence (Q96GX5 1-879): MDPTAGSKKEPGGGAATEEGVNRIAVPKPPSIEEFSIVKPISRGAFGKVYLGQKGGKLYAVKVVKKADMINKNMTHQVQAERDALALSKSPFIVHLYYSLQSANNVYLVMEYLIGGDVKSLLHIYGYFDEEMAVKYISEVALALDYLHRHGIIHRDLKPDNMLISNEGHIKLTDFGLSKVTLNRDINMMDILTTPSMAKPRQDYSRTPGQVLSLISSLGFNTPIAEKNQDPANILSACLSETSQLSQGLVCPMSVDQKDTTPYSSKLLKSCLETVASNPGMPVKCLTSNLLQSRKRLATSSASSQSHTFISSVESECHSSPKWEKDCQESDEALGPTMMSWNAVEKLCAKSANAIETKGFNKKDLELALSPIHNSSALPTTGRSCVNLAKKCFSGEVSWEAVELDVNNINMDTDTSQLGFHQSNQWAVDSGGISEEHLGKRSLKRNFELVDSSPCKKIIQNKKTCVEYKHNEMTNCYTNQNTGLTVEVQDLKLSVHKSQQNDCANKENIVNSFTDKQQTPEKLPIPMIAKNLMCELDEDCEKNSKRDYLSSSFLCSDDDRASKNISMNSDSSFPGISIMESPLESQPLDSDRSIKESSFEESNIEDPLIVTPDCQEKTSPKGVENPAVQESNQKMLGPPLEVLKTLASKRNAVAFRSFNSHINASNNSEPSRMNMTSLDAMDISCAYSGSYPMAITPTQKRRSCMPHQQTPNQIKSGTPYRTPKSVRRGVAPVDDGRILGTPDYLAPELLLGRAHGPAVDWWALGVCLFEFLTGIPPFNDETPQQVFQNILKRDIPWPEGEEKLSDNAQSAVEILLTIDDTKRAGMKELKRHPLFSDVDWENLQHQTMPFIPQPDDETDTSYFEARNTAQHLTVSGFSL

[1] = tested on: ZC1/HGK, ZC2/TNIK, ZC3/MINK; experiment: KiNativ, OCI cells live cell; type: cell-based, human; details: labeling site Lys2, peptide DIKGQNVLLTENAEVK
ZAP70 = target: T2, ZAP70 (Homo sapiens, UniProt P43403); experiment: KiNativ, OCI cells live cell; type: cell-based; details: 2 h, labeling site Activation Loop
T2 sequence (P43403 1-619): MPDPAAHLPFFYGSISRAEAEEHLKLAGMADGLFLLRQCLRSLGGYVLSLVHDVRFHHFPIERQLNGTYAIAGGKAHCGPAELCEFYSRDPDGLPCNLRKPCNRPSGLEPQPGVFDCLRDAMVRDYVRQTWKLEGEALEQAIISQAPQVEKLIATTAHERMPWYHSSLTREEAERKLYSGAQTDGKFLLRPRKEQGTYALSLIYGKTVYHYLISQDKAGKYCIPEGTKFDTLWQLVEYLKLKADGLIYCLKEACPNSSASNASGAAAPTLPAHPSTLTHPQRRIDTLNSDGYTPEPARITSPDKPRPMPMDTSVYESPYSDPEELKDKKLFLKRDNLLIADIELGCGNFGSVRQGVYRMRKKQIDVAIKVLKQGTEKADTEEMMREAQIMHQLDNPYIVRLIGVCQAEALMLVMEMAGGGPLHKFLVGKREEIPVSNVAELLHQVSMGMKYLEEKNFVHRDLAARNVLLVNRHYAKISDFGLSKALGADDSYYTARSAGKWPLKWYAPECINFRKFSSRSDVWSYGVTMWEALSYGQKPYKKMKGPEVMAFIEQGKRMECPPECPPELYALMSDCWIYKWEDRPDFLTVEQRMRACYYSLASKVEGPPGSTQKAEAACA

CRK7 = CRK7 (Homo sapiens, UniProt Q9NYV4); experiment: KiNativ, OCI cells live cell; type: cell-based; details: labeling site Lys2, peptide DIKCSNILLNNSGQIK
ACK1 = ACK1 (Homo sapiens, UniProt Q07912); experiment: Kinase assay by Reaction Biology; type: biochemical; design: purchased Eurofins DiscoverX
CSF1R = target: T3, CSF1R (Homo sapiens, UniProt P07333); experiment: KdELECT binding assay
T3 construct: purchased Eurofins DiscoverX

eEF2K = eEF2K (Homo sapiens, UniProt O00418); experiment: KiNativ, OCI cells live cell; type: cell-based; details: 2 h, labeling site ATP, peptide […]
Sequence of eEF2K (O00418 whole entry): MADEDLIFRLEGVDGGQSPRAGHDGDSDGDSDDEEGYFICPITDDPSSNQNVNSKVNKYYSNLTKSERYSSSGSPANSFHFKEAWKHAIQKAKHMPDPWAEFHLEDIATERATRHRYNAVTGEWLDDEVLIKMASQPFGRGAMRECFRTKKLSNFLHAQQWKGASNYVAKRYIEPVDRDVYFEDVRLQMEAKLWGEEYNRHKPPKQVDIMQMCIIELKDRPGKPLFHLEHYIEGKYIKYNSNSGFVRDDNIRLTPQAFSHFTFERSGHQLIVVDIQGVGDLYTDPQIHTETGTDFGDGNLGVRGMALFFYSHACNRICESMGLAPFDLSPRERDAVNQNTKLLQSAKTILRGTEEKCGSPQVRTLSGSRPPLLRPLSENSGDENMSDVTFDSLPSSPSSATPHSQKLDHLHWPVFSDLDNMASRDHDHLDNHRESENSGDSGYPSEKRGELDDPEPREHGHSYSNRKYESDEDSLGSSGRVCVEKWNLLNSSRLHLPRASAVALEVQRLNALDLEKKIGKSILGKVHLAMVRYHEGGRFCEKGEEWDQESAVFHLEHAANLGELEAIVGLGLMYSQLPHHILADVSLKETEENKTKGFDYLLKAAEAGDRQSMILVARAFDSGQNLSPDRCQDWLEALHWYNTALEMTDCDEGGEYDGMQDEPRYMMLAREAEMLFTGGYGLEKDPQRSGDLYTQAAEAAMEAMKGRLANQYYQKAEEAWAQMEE

Sequence of ACK1 (Q07912 whole entry): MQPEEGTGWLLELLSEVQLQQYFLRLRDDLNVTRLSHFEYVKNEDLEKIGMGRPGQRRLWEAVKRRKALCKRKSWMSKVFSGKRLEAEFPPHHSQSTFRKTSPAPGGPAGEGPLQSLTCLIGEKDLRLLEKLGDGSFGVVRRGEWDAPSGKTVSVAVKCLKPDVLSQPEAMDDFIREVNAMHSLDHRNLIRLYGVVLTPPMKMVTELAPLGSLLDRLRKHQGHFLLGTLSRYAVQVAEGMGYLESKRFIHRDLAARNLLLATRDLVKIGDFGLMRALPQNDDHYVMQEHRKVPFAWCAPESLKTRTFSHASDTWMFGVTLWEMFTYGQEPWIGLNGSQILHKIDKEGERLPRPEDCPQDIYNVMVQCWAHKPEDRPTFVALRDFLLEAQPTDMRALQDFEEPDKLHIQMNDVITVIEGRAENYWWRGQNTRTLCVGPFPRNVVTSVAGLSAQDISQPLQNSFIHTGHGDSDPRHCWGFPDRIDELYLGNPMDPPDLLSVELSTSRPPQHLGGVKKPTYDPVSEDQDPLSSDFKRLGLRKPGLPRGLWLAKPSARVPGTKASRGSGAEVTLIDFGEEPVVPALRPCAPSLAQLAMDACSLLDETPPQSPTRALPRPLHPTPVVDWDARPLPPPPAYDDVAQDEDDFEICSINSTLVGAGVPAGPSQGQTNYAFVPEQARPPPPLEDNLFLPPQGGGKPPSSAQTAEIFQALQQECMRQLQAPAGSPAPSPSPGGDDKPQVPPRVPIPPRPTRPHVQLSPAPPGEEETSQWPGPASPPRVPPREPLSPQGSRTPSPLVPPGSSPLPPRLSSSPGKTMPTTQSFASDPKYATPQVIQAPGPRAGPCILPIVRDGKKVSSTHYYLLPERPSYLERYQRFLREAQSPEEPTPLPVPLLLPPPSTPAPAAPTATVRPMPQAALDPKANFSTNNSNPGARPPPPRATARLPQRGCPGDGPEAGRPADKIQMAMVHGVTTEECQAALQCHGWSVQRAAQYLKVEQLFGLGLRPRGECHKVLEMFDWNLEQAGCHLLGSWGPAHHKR
Sequence of GSK3A (P49840 whole entry): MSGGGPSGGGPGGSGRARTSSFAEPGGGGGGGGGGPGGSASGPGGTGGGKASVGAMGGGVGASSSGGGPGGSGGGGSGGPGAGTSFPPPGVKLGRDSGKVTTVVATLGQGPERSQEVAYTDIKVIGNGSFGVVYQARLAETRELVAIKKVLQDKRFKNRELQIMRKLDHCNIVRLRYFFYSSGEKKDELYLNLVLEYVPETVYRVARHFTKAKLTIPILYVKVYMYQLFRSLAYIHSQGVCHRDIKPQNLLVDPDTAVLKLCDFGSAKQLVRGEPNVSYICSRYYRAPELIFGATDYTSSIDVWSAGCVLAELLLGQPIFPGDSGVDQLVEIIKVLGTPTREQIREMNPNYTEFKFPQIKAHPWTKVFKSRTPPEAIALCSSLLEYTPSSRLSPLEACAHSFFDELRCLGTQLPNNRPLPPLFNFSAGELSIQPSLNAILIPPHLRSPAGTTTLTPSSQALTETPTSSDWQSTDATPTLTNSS
Sequence of CRK7 (Q9NYV4 whole entry): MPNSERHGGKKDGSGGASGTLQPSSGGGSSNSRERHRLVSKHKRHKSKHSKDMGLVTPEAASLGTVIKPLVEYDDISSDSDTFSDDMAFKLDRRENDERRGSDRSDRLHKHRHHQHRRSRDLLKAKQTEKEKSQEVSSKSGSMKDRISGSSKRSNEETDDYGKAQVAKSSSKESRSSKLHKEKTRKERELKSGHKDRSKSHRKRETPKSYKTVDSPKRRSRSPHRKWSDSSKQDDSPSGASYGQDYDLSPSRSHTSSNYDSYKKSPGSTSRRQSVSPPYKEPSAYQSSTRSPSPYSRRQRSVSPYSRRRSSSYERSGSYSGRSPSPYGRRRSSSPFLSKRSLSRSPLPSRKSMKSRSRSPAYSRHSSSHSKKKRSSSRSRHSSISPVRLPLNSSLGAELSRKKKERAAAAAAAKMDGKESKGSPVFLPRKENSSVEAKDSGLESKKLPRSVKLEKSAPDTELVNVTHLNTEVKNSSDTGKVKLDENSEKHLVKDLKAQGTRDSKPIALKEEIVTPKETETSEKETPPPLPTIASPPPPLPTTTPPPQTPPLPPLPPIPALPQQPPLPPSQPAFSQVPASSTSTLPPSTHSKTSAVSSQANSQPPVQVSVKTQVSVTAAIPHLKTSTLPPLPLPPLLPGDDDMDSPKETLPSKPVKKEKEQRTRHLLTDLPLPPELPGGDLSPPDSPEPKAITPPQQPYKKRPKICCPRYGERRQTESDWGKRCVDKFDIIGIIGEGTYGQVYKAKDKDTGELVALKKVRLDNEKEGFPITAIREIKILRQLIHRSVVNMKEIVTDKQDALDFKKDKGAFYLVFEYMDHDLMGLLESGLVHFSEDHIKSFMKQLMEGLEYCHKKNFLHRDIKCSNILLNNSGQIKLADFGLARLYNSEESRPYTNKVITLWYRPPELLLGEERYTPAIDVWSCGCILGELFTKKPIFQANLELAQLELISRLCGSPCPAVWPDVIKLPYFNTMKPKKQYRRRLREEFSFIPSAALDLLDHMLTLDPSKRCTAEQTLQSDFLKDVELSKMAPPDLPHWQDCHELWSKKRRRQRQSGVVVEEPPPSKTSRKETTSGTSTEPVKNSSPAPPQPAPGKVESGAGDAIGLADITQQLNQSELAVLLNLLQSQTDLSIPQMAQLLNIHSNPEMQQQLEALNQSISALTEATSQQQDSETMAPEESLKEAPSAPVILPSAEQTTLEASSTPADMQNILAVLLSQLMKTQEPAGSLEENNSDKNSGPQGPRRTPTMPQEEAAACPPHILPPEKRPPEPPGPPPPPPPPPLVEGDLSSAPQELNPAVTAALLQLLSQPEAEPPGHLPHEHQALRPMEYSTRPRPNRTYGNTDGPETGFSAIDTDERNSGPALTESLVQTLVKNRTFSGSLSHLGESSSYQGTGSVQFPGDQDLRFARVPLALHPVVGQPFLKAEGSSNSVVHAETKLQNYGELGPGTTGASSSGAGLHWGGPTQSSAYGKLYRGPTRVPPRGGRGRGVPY
Sequence of CRK7 (O75909 whole entry partner): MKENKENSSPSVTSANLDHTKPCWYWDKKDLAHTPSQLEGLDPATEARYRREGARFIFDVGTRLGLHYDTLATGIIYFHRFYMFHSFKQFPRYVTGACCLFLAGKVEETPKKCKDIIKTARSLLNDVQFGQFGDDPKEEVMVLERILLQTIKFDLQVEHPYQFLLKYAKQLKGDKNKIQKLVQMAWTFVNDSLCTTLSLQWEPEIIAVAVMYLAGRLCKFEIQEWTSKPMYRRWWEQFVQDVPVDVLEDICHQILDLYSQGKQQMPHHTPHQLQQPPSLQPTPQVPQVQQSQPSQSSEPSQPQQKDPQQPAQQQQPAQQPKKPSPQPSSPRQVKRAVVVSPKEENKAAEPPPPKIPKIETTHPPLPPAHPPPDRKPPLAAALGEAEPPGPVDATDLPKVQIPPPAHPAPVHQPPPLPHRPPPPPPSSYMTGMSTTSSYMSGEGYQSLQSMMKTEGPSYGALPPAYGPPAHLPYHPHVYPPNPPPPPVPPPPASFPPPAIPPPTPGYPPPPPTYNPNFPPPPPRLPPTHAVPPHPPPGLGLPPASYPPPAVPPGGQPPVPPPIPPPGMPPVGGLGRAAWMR
Sequence of PCTAIRE1 (Q00536 whole entry): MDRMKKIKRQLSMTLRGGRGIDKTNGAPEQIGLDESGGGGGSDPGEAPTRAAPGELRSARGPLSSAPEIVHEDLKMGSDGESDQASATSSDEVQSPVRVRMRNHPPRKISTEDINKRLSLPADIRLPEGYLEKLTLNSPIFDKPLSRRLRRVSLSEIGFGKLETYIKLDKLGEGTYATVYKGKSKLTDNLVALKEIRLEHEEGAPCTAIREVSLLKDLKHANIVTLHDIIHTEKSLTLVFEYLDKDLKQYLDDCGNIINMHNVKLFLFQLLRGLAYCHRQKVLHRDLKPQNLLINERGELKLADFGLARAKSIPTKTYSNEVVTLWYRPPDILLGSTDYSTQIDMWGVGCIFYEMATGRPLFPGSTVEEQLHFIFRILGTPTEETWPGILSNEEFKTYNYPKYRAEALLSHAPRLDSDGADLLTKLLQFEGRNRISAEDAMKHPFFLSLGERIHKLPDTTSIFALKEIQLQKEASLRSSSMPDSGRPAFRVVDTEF

For `CN1CCN(Cc2ccc(Nc3ncc(Cl)c(Nc4ccccc4S(=O)(=O)N(C)C)n3)cc2)CC1` [TP-0903], the inhibition at 0.1 µM (GSK3A) was 22.6%, the inhibition at 0.1 µM (PCTAIRE1) was 94.6% and the Inhibition (MASTL; labeling site ATP Loop, peptide GAFGKVYLGQK) was 6.7%. The Inhibition (MASTL; labeling site Lys1, peptide LYAVKVVK) was 34.3%, the Inhibition [1] was -42.0% and the inhibition at 0.1 µM (ZAP70; peptide ISDFGLSKALGADDSYYTAR) was -29.4%. It also gave an inhibition at 0.1 µM (ZAP70; peptide […], read-out: Inhibition) of -4%, an Inhibition (CRK7) of 57.2% and a pIC50 (ACK1) of 7.51. For the same compound, the pKd (CSF1R) was 7.80 and the inhibition at 0.1 µM (eEF2K) was 12.4%.
